Experimental data as given in patent US20090252751A1, “Immune adjuvant comprising ubiquinone” (priority 2007, published 2009).

Legend:
Assay type in all cases: in vivo
mice = test: Production amount of antibody in mice by ELISA with CoQ2, CoQ4, CoQ6 or CoQ10 as immunoadjuvant (Test Example 3); settings: used as immunoadjuvant together with antigenic substance; serum sample on the 25th day; ELISA absorbance (FIG. 3)
Procedure: The following test was carried out according to the procedure of Text example 1 by using ELISA to confirm the amount of antibody in mice produced upon the administration of coenzyme Q2 (n=2; CoQ2), coenzyme Q4 (n=4; CoQ4), coenzyme Q6 (n=6; CoQ6) or coenzyme Q10 (n=10; CoQ10) together with an antigenic substance. The case where only an antigenic substance had been administered was selected as a reference example in the test.
As a result, the average of the absorbance for the serum sample on the 25th day from the start of the test in each group was as shown in FIG. 3.

Balb/c mice [1] = test: Production amount of antibody in mouse serum by ELISA after dermal administration of antigenic substance with immunoadjuvant (Test Example 1)
Balb/c mice [2] = test: Measurement of IgG1/IgG2 ratio in blood sample as index of Th2/Th1 balance (Test Example 2)
Procedure: The blood sample collected on the 25th day from the start of the test was provided, and the IgG1/IgG2 ratio was measured as an index of Th2/Th1 balance.
Further, a blood sample obtained by inoculating only the antigenic substance by intraperitoneal administration instead of the dermal administration at the same time as in the administration schedule in Test Example 1 was used as a control blood sample for comparison.
The IgG1/IgG2 ratio was measured with a Mouse Monoclonal Antibody Isotyping Reagents kit (SIGMA).
Specifically, a mouse serum was diluted with PBS by a factor of 1000 to give a solution. The solution (100 μL) was added to wells in a plate and was incubated at 37° C. for one hr. Next, each well was washed three times with PBS, and 100 μL of isotyping specific reagents (reagents containing IgA, IgG1, IgG2a, and IgG2b), which had been diluted by a factor of 1000, were added to the wells followed by incubation at room temperature for 30 min. Each well was washed three times with PBST. A peroxidase labelled […] (manufactured by SIGMA) (100 μL), which had been diluted with PBST by a factor of 5000, was added to the wells, and the wells were allowed to stand at room temperature for one hr. The wells were then washed three times with PBST. […] For each well, the absorbance was measured with Multiscan Ascent (manufactured by Thermo Labsystems, wave length 405 nm).

## COC1=C(OC)C(=O)C(C/C=C(\C)CCC=C(C)C)=C(C)C1=O [coenzyme Q2]
mice
  production amount of the antibody compared with the case where only the antigenic substance was administered: larger

## COC1=C(OC)C(=O)C(C/C=C(\C)CC/C=C(\C)CC/C=C(\C)CCC=C(C)C)=C(C)C1=O [coenzyme Q4]
mice
  production amount of the antibody compared with the case where only the antigenic substance was administered: larger

## COC1=C(OC)C(=O)C(C/C=C(\C)CC/C=C(\C)CC/C=C(\C)CC/C=C(\C)CC/C=C(\C)CCC=C(C)C)=C(C)C1=O [coenzyme Q6]
mice
  production amount of the antibody compared with the case where only the antigenic substance was administered: larger

## COC1=C(OC)C(=O)C(C/C=C(\C)CC/C=C(\C)CC/C=C(\C)CC/C=C(\C)CC/C=C(\C)CC/C=C(\C)CC/C=C(\C)CC/C=C(\C)CC/C=C(\C)CCC=C(C)C)=C(C)C1=O [coenzyme Q10]
Balb/c mice [1]; dermal administration (tape preparation), serum sample on the 25th day from the start of the test, serum diluted 1000-fold, 405 nm, n=4
  average±standard error of the absorbance (amount of produced antibody, ELISA): 0.670±0.033
Balb/c mice [2]; dermal administration of the antigenic substance together with adjuvant, blood sample on the 25th day
  IgG1/IgG2 ratio (given as average of the absorbance): 2.28
mice
  production amount of the antibody compared with the case where only the antigenic substance was administered: larger

## cholera toxin [reference compound]
Balb/c mice [1]; mouse, in vivo
  average±standard error of the absorbance (amount of produced antibody, ELISA): 0.551±0.202
Balb/c mice [2]; mouse, in vivo
  IgG1/IgG2 ratio (given as average of the absorbance): 1.46
